The text below walks through data of patent publication US20230016007A1, “SOLUTIONS AND METHODS FOR FORMING AN EXOGENOUS FLEXIBLE FILM, WHICH INCLUDES A SUPPLEMENTAL COMPONENT, ON A PLANT AND PLANTS INCLUDING THE EXOGENOUS FLEXIBLE FILM” (Cultiva, LLC, priority 2017, published 2023).

The experiment concerns grey mold (Botrytis cinerea). Put plainly: grey mold on Frontelis strawberries 7 days post-harvest (FIG. 11).

SMILES strings stand for the structures.

Method: The four groups were evaluated for infestation with grey mold 7 days post-harvest.

Consider `CC1(C(=O)Nc2ccc(O)c(Cl)c2Cl)CCCCC1` [Fenhexamid], for which the “infestation with grey mold” value is listed as “exhibited at least some infestation”.
